Test results reported in patent US20190322960A1, “FRAGRANCE COMPOSITIONS AND METHODS OF USE THEREOF” (TAKASAGO INTERNATIONAL CORPORATION, priority 2016, published 2019).

Experiments:
[1] = tested on: salivary alpha-amylase; experiment: Stress test (timed mathematical and word test), salivary alpha-amylase of panelists exposed to fragrance; type: in vivo, human; conditions: for effect on salivary alpha-amylase levels as compared to the DPG control (in words): exposed panelists, stress test; for % Change in Alpha-amylase (i.e., before versus after stress): panelists exposed during stress test, saliva before and immediately after stress test, DPG solvent, DPG control 51.9%
Method: (§1) Stress was induced in each panelist using a timed mathematical and word test, which was administered to panelists in a small group competition setting to induce stress in each of the panelists. At set time intervals during the test, each panelist was exposed to either a single fragrance compound or to a DPG control.
(§2) Saliva was collected for each panelist before and immediately after the stress test. Saliva samples were assayed for salivary alpha-amylase activity and salivary cortisol levels using a commercially available assay kit (e.g., Salimetrics®).
(§3) Table 1-A summarizes the percent change (i.e., before stress versus after stress) in the salivary alpha-amylase levels of panelists exposed to fragrance compounds of the present disclosure during the stress test. In addition, the table illustrates the statistical significance of the change in alpha-amylase levels (i.e., p-value or probability value, P) of each of the fragrance compounds as compared to DPG, representing the change in the control (i.e., just DPG without a fragrance compound before stress and after stress).
(§4) Saliva was collected before and immediately after the stress test. Saliva samples were assayed for salivary alpha-amylase activity and salivary cortisol levels using a commercially available assay kit (e.g., Salimetrics®).
as §3, with “5-A” for “1-A”

[2] = tested on: salivary cortisol; experiment: Stress test (timed mathematical and word test), salivary cortisol of panelists exposed to fragrance; type: in vivo, human; conditions: for effect on salivary cortisol levels as compared to the control (in words): exposed panelists, stress test; for % Change in Cortisol (i.e., before versus after stress): panelists exposed during stress test, saliva before and immediately after stress test, DPG solvent, DPG control 10.8%
Method: as §1, §2
as §3, with “Table 1-B” for “Table 1-A”, “salivary cortisol” for “salivary alpha-amylase”, “in salivary cortisol” for “in alpha-amylase”
as §4
as §3, with “Table 5-B” for “Table 1-A”, “salivary cortisol” for “salivary alpha-amylase”, “in salivary cortisol” for “in alpha-amylase”

Compound	effect on salivary alpha-amylase levels as compared to the DPG control (in words) [1]	% Change in Alpha-amylase (i.e., before versus after stress) [1] [%]	effect on salivary cortisol levels as compared to the control (in words) [2]	% Change in Cortisol (i.e., before versus after stress) [2] [%]
CC1=CCC(C(C)CC2CCCC2=O)CC1 (centres unmarked) [2-(2-(4-methyl-3-cyclohexen-1-yl)propyl)cyclopentanone]	limited the increase in salivary alpha-amylase levels	33.5	the levels of salivary cortisol were limited	−10.6
CC(=O)OC(C)(C)C1CC=C(C)CC1 (centres unmarked) [Terpinyl Acetate, terpinyl acetate]	limited the increase in salivary alpha-amylase levels	16.5	the levels of salivary cortisol were limited	−9.1
C=C(C)[C@H]1CC=C(C)CC1 [Limonene, limonene]	limited the increase in salivary alpha-amylase levels	−15.9		21.05
